Assay results taken from ChEMBL document CHEMBL1152045, “Synthesis of the pyrimidine analog of 4,5,6,7-tetrahydroimidazo[4,5,1-jk][1,4]benzodiazepin-2(1H)one (TIBO) potential for HIV-1 inhibition” (Bioorg Med Chem Lett, 1991).

Legend:
MT4 [1] = assay: Compound was tested for its anti HIV-1 activity in MT-4 cells.; type: functional, cell-based; settings: Homo sapiens
MT4 [2] = assay: Compound was tested for its anti HIV-1 activity in MT-4 cells up to 2 uM concentration; No activity against HIV-l virus replication.; type: functional, cell-based, Homo sapiens

SMILES | IC50 (MT4 [1]) [nM] | IC50 (MT4 [2])
CC(C)=CCN1Cc2cc(Cl)cc3[nH]c(=S)n(c23)C[C@@H]1C | 42 | 
CC(C)=CCN1Cc2ncnc3nc(O)n(c23)CC1C (configuration not stated) |  | Not Active
